# Assays:
# [1] = test system: ERK MAPK; assay: ERK MAPK phosphorylation during oxygen-glucose deprivation (OGD) in rat cortical neuron cultures; type: cell-based; details: rat cortical neurons
# Protocol: Equal protein from total cell lysates obtained from rat and mice neuronal cultures were resolved in 7.5% SDS-PAGE, and subjected to immunoblotting procedure as described earlier (Podder and Paul, 2009, J Neurochem 110:1095-1106). Blots were analyzed with antibodies as described in each experiment. All primary antibodies (anti-pERK, anti-ERK) and secondary-horse radish peroxidase conjugated antibody concentrations were used according to recommendations provided by the manufacturer. Signals from immune complexes in the blots were developed using West Pico supersignal chemiluminescence reagents and then captured on X-ray films. Densitometric analysis of the images was performed using the Image J software.
# At specified time periods (one hour, two hours, and three hours) during OGD alone or OGD in the presence of L-Hcy (50 μM), cells were removed from the chamber and lysed for immunoblot analysis. Some cultures were treated with L-Hcy (three hours) during the OGD insult in the presence or absence of NVP-AAM077 (30 nM; 3 h). […] Cells were then subjected to staining with Hoechst 33342 dye for 15 minutes, washed extensively with PBS, and analyzed using fluorescent microscopy to assess nuclear damage. To quantitatively assess the percentage of pyknotic nuclei, a total of 1000 cells were counted for each set of experiments (Poddar et al., 2010, J Neurochem 115, 1350-1362).
# [2] = test system: MCP-1; assay: MCP-1 expression and release from neuron cultures (enzyme immunoassay); type: cell-based
# Protocol: For measurement of cPLA2 activity and MCP-1 levels in cell lysates, neuronal lysates were prepared by harvesting neurons in ice-cold Tris-buffered saline (pH 7.4) containing phosphatase inhibitor, sonicated three times in five-second bursts and placed on ice (two minutes) between each burst of sonication. The lysed cell suspensions were centrifuged at 10,000 rpm (10 minutes) and the supernatant was collected in another tube. Equal amounts of protein from the supernatant were processed for cPLA2 activity assay according to the manufacturer's protocol. Equal protein from the lysates were also used to estimate MCP-1 levels using an MCP-1 ELISA kit.
# For measurement of PGE2 levels and MCP-1 levels released from neurons, culture medium was collected from each experimental plate and centrifuged at 1000 rpm for five minutes to remove cellular debris. Equal volume (100 μl) of the supernatant from each sample was used to determine PGE2 level using the PGE2 ELISA kit according to the manufacturer's instructions.
# [3] = test system: control and hyperhomocysteinemic rats subjected to MCAO; assay: MCAO (60 min) and reperfusion; infarct size and structural integrity by MRI (T2, ADC, FA maps); type: in vivo, male Wistar rats; details: for total infarct volume (T2 maps): 24 hours after MCAO
# Protocol: Middle cerebral artery occlusion (MCAO) was performed on both male rats and mice. For rat studies, control and hyperhomocysteinemic male Wistar rats (8-9 weeks, 290-295 g) were subjected to MCAO under anesthesia (2% isoflurane in medical grade oxygen), using the intraluminal method as previously described (Candelario-Jalil, E., et al., 2004, Brain Res 1007:98-108; Deb et al., 2013, J Neurosci 33:17814-17826). Briefly, the right common carotid artery (CCA) was exposed through an incision made in the ventral midline neck region. To prevent improper insertion of the occluding filament, both the external carotid artery and pterygopalatine branch of the internal carotid artery were clipped. A silicon-rubber-coated monofilament (403756, Doccol Corp., Sharon, Mass.) was inserted into the internal carotid artery through an incision made in the CCA, 2 mm proximal from the bifurcation of the CCA, and advanced 18-19 mm from the bifurcation, to occlude the origin of the anterior cerebral, middle cerebral, and posterior communicating arteries. The incision was closed and the rats were allowed to recover from anesthesia. A quick assessment of neurological deficit was done immediately prior to reperfusion and only those animals that had more than 50% of contralateral forelimb flexion and walked in circles to the contralateral side were considered for the study, as previously described (Longa et al., 1989, Stroke 20:84-91). Following 60 minutes of occlusion, the rats were anesthetized and the filament was gently retracted to allow reperfusion. The incision was closed and the rats were allowed to recover from anesthesia. A subset of control and hyperhomocysteinemic rats received a single intravenous injection of GluN2A-NMDAR selective inhibitor NVP-AAM077 (1.2 mg/kg body weight) through the femoral vein, and another subset received a single intraperitoneal injection of GluN2B-NMDAR inhibitor Ro 256981 (6 mg/kg body weight), as previously described (Chaperon et al., 2003, Behav Pharmacol 14:477-87; Fox et al., 2006, Hippocampus 16:907-015). Both NVP-AAM077 and Ro 256981 were administered at the onset of ischemic insult. The rats were then subjected to MRI on days 1, 3, and 14 post-MCAO and a series of behavioral tests was performed between days 7-9 post-MCAO.
# Multimodal MRI of rat brain that includes relaxation time imaging and diffusion imaging was performed at 1, 3 and 14 days after MCAO and reperfusion. The rats were placed in a dedicated holder and positioned in the isocenter of a 4.7-Tesla MRI scanner (Bruker Biospin) that is equipped with a 40-cm bore and a gradient of 660 mT/m at rise time within […]. To obtain good signal-to-noise ratio, a small-bore linear RF coil (inner diameter=72 mm) was used for signal excitation, and a single tuned surface coil (RAPID Biomedical, Rimpar, Germany) was used for signal detection (Sood et al., 2009, J Cereb Blood Flow Metab 29:308-316; Taheri, S. and Sood, R., 2007, Magn Reson Imaging 25:613-625; Yang et al., 2013 J Cereb Blood Flow Metab 33:1104-1114). For mice, the MRI was performed only at day 1. The mice were placed in its dedicated holder of inner diameter 72 mm in the 4.7-Tesla MRI scanner with a 40-cm bore size and a gradient rise time/maximum speed of 9000 T/m/s. During MRI, the rats and mice were kept anesthetized with 2% isoflurane in medical grade oxygen. Respiration and heart rate were monitored continuously and body temperature was maintained at 37.0±0.5° C.
# For rats, T2-weighted images were acquired with a rapid acquisition with relaxation enhancement (RARE) sequence of Repetition Time (TR)/Echo Time (TE)=5,000 ms/56 ms, Field of View (FOV)=4 cm×4 cm, slice thickness=1 mm, inter-slice distance=1.1 mm, number of slices=12, matrix=256×256 and number of average=3. For mice, T2 weighted images were acquired with a RARE sequence of Repetition Time/Echo Time=5,000 ms/56 ms, Field of View=4 cm×4 cm, slice thickness=1 mm, number of slices=12, matrix=256×256 and number of average=3. […]
# [4] = control rats, single injection at onset of ischemic insult (NVP-AAM077 1.2 mg/kg; Ro 256981 6 mg/kg), untreated control 18.65±2.89%
# [5] = hyperhomocysteinemic (HHcy) rats, single injection at onset of insult (NVP-AAM077 1.2 mg/kg; Ro 256981 6 mg/kg), untreated HHcy 37.41±2.33%
Structure (SMILES),"ERK MAPK phosphorylation during OGD ([1]; OGD in the presence of L-Hcy 50 μM, time course up to three hours)","expression and release of MCP-1 from neurons ([2]; L-homocysteine 50 μM, 0, two and four hours, alone)","effect on ERK MAPK activation by OGD plus L-homocysteine ([1]; OGD and L-Hcy 50 μM three hours, NVP-AAM077 30 nM)","lesion volume (T2 maps) ([3]; HHcy rats, day 3 after MCAO, NVP-AAM077 1.2 mg/kg, untreated HHcy 38.63±2.75%)","FA value in the infarcted area ([3]; HHcy rats, day 14 after MCAO, NVP-AAM077 1.2 mg/kg, untreated HHcy 0.25±0.01)","lesion volume (T2 maps) ([3]; HHcy rats, day 14 after MCAO, NVP-AAM077 1.2 mg/kg, untreated HHcy 27.16±2.18%)","total infarct volume (T2 maps) [3, 4]","total infarct volume (T2 maps) [3, 5]","effect on homocysteine-induced expression and release of MCP-1 ([2]; L-homocysteine 50 μM four hours, with DL-AP5 200 μM or NVP-AAM077 30 nM)"
N[C@@H](CCS)C(=O)O [L-homocysteine],causes sustained ERK MAPK phosphorylation,progressive increase in expression and release,,,,,,,
"C[C@H](NC(c1cccc2[nH]c(=O)c(=O)[nH]c12)P(=O)(O)O)c1ccc(Br)cc1 (stereo partly drawn) [NVP-AAM077, ({[(1S)-1-(4-bromophenyl)ethyl]amino}-(2,3-dioxo-1,4-dihydroquinoxalin-5-yl)methyl)phosphonic acid]",,,inhibits the activation of ERK MAPK,19.61±4.48%,0.32±0.01,10.76±2.40%,16.07±2.8%,17.98±3.24%,attenuates the expression and release of MCP-1
C[C@@H](CN1CCC(Cc2ccccc2)CC1)[C@@H](O)c1ccc(O)cc1 [Ro 25-6981],,,,,,,7.46±1.24%,32.48±4.32%,

# From patent US11541065B2, “Compositions and methods for treating brain injury” (UNM RAINFOREST INNOVATIONS, priority 2018, dated 2023)
